Consider one compound from patent publication US20200360349A1, “ADMINISTRATION OF MONOBACTAM FOR THE TREATMENT OF URINARY TRACT INFECTION” (Novartis AG, priority 2017, published 2020).

In data set [1] the test system is Gram-negative bacteria, including strains that show resistance to other monobactams. Particulars: cited from earlier work.
The nature of data set [2]: Safety and tolerability of single doses of LYS228. The class given is in vivo, human. The settings on record: following single doses up to 6000 mg. From the text:
and including any ionic species thereof is a compound with antibacterial activity (See PCT Application No. PCT/US2015/022011, which is incorporated herein by reference). […] LYS228 kills bacteria by inhibiting cell wall synthesis through covalent modification of the active site serine of penicillin binding protein 3 (PBP3). Aztreonam is the only monobactam approved for clinical use (Tunkel and Scheld Infect Control Hosp Epidemiol p. 486-94, 1990). MBL-expressing Enterobacteriaceae can inactivate all classes of (3-lactam drugs, except monocyclic (3-lactams like the monobactams. MBLs are frequently co-expressed with SBLs. The prevalence of strains expressing the New Delhi metal-β-lactamase-1 (NDM-1) is as high as 12% in clinical isolates from patients with invasive infections in India (Biedenbach et al Antimicrob. Agents Chemother. p. 826-30, 2015, Rahman et al India. Int. J. Antimicrob. Agents p. 30-7, 2014); infections caused by strains expressing NDM-1 and other MBLs have been detected globally, including in Europe, the United States, China, and Japan (Kazmierczak et al Antimicrob. Agents Chemother. p. 1067-78, 2016). […]

In the case of `Nc1nc(/C(=N/OC2(C(=O)O)CC2)C(=O)N[C@@H]2C(=O)N(S(=O)(=O)O)[C@@H]2CN2CCOC2=O)cs1` [LYS228, 1-(((Z)-(1-(2-aminothiazol-4-yl)-2-oxo-2-(((3S,4R)-2-oxo-4-((2-oxooxazolidin-3-yl)methyl)-1-sulfoazetidin-3-yl)amino)ethylidene)amino)oxy)cyclopropanecarboxylic acid], the “activity against Gram-negative bacteria” value in data set [1] is recorded as “strong activity”. In addition, the safety and tolerability result in data set [2] was “safe and well-tolerated”.
